# In US11219588B2, “Use of polyamines in compositions and methods for inducing or promoting skin darkening and regulating melanogenesis” (Agency for Science, Technology and Research, priority 2016, dated 2022):
# Where two headings read alike, the source gives them in different places.
# Experiments:
# Human keratinocytes = assay: MTT cell viability assay, keratinocytes; details: increasing concentrations (trimer44NMe up to 5 μM)
# Method: (§1) Human keratinocytes and melanocytes were cultured in the presence of increasing concentrations of a polycationic aliphatic amine transport inhibitor, trimer44NMe, or DFMO, and the cell viability was determined by an MTT assay.
# Human melanocytes [1] = assay: MTT cell viability assay, melanocytes; details: increasing concentrations
# Method: as §1
# [2] = system: co-cultured human keratinocytes and melanocytes; assay: UV induced pigmentation in co-culture of melanocytes and keratinocytes; assay type: cell-based; details: co-culture under UV induction
# Text: On UV induction, keratinocytes signal to melanocytes to increase melanogenesis. This can be modeled through co-culture of human melanocytes and keratinocytes under UV induction.
# [3] = system: primary human melanocytes; details: long term culture with putrescine
# [4] = system: human abdominal skin biopsies
# Text: The skin was them imaged, followed by sectioning and staining with Fontana Mason stain which stains for melanin.
# NHEM-aLP cells [5] = assay: Putrescine/spermidine treatment of melanocytes and melanin quantification; assay type: cell-based, human
# Method: 2×10^5 cells were dissolved in 1 M sodium hydroxide solution and incubated at 80° C. for 2 hours. The absorbance of the cell lysates was measured at 405 nm in a microplate well reader.
# 2×10^5 cells were dissolved in 1M sodium hydroxide solution and incubated at 80° C. for 2 hours. The absorbance of the cell lysates was measured at 405 nm in a microplate well reader.
# NHEM-aLP cells [6] = assay: MTS proliferation and cytotoxicity colorimetric assay
# [7] = system: ATP13A3, SLC11A8 and Caveolin-1 in melanocytes; details: on addition of putrescine
# [8] = system: melanogenesis-related genes (TYR, TYRP1, DCT and PMEL) in NHEM-aLP cells; details: 2 mM putrescine for 6 days, relative to RPLP0
# Method: Human epidermal melanocytes from adult donor (Hema-LP) were purchased from Life Technologies. The cells were grown in 254 media with HMGS-2 and calcium chloride supplements in a humidified incubator containing 5% CO2 according to the manufacturer's instruction. For putrescine treatments, the cells were plated at an approximate density of 20,000/cm^2 the day before. Fresh media was added along with the respective drugs reconstituted in water (putrescine was purchased from Sigma Aldrich) to the cell cultures on day 0 and day 3 of experiment.
# Total RNA was extracted from the cells using RNAeasy (Qiagen) according to manufacturer's instructions. 500 ng of total RNA was converted to complimentary DNA using RevertAid First Strand cDNA synthesis kit (Thermo Scientifc). It was diluted 1:25, and 4 ul of the diluted mixture was used as a template with specific primers using Luminaris Colour HiGreen Hi ROX master mix (Thermo Fisher Scientific) for qRT-PCR on an ABI PRISM 7900 sequence detection system. […] Expression levels detected by qPCR were normalized with ribosomal protein LP0 or L13A.
# [9] = system: reconstructed epidermis (keratinocytes, melanocytes and fibroblasts); details: 2 mM Putrescine for 14 days, preliminary experiment
# Method: The reconstructed epidermis (Denova Sciences) has normal human keratinocytes three dimensionally cultured at an air-liquid interface in a chemically defined medium, in the presence of melanocytes and fibroblasts. They were treated with 2 mM Putrescine for 14 days.
# [10] = system: cultured human melanocytes; details: melanocytes cultured with putrescine
# Method: To confirm that cultured human melanocytes do take up putrescine, the polycationic aliphatic amine content was measured in melanocytes cultured with and without putrescine.
# [11] = system: primary human melanocytes; details: 3 and 6 days after incubation with putrescine
# Text: FIG. 8 is a dot plot showing the viability of cells untreated, treated for 3 days, or treated for 6 days with putrescine.
# [12] = system: melanogenesis related proteins (TYR, TYRP1 and DCT) in NHEM-aLP cells; details: putrescine treated vs control, western blotting
# Method: Human epidermal melanocytes from adult donor (Hema-LP) were purchased from Life Technologies. The cells were grown in 254 media with HMGS-2 and calcium chloride supplements in a humidified incubator containing 5% CO2 according to the manufacturer's instruction. For putrescine treatments, the cells were plated at an approximate density of 20,000/cm^2 the day before. Fresh media was added along with the respective drugs reconstituted in water (putrescine was purchased from Sigma Aldrich) to the cell cultures on day 0 and day 3 of experiment. The cells were lysed in RIPA buffer, and concentration of the cell lysate was determined by Pierce BCA Protein Assay Kit (Thermo Scientific). […] The membrane was blocked with 5% skim milk in TBST (0.1% Tween-20 (Sigma-Aldrich) in 1×TBS (0.1 M NaCl, 0.1 M Tris pH 7.4 in ddH2O; purchased from Biopolis Shared Facility) and incubated overnight at 4° C. with respective primary antibodies against TYR (sc-7833), TYRP1 (sc-10443), DCT (sc-10451) from Santa Cruz Biotechnology Inc and RPLP0 (AB126480) from Abcam at a dilution of 1:1000 in blocking buffer. The samples were then incubated with horseradish peroxidase-labeled anti-rabbit, or anti-goat IgG (Santa Cruz Biotechnology, Inc) at a dilution 1:5000 for 1 hour at 4° C. and immunoreactive bands were detected with enhanced chemiluminescent substrate (Thermo Fisher Scientific).
# Human melanocytes [13] = system: Human melanocytes
# Method: as §1
# [14] = system: human primary melanocytes; assay: Melanin content of melanocytes, putrescine with and without transport inhibitor; assay type: cell-based; details: putrescine plus trimer44NMe vs putrescine alone
# Method: To confirm that import of putrescine is required for the pigmentation phenotype observed in melanocytes, human primary melanocytes were cultured with putrescine with and without a polycationic aliphatic amine transport inhibitor (trimer44NMe).
smiles,measurement,setting,value
"NCCCC(N)(C(=O)O)C(F)F (racemic) [DFMO, (RS)-2,5-diamino-2-(difluoromethyl)pentanoic acid]",sensitivity of keratinocyte viability,Human keratinocytes,sensitive
same,sensitivity of melanocyte viability,Human melanocytes [1],comparatively insensitive
same,UV induced pigmentation (melanin-containing keratinocytes),[2],inhibits UV induced pigmentation
"NCCCCN [putrescine, butane-1,4-diamine]",melanin content on long term culture,[3],sustained increase in melanin content
same,darkening of the skin,[4]; incubated ten days,promoted darkening of the skin
same,melanin stain within melanocytes and neighboring keratinocytes,"[4]; ten days, Fontana Mason stain",increase in melanin stain
same,cell morphology / dendrites,"NHEM-aLP cells [5]; 2 mM putrescine, day 6",larger and flatter and displayed an increased number of dendrites
same,visual darkening of the melanocytes,"NHEM-aLP cells [5]; 2 mM putrescine, every 3 days for 6 days",drastic darkening effect
same,increase in melanin content vs control,"NHEM-aLP cells [5]; 2 mM putrescine, every 3 days for 6 days, NHEM-aLP cells",1.5-2 fold
same,maximum dose up to which NHEM-aLP can survive,"NHEM-aLP cells [6]; 3 days treatment, MTS",2 mM
same,effect on proliferation,"NHEM-aLP cells [6]; doses between 0.5 mM and 2 mM, 3 days",mild proliferative effect
same,protein level of Caveolin-1,[7],decreases
same,protein levels of polyamine transporters ATP13A3 and SLC11A8,[7],increase
same,"mRNA expression levels of TYR, TYRP1, DCT and PMEL",[8],significant increase
same,pigmentation levels compared to control,[9],increase in pigmentation levels
same,intracellular levels of putrescine vs non-treated cells,[10],dramatically higher
same,intracellular levels of spermine,[10],decrease in the levels of spermine
same,cell viability,[11],no decrease in viability
same,"protein levels of TYR, TYRP1 and DCT",[12],increased drastically
"NCCCCNCCCN [spermidine, N′-(3-aminopropyl)butane-1,4-diamine]","melanin content of the cells, dose dependence","NHEM-aLP cells [5]; 0.05 mM and 0.5 mM spermidine, every 3 days for 6 days",dose dependant increase
same,maximum fold change in melanin content,"NHEM-aLP cells [5]; 0.5 mM spermidine, every 3 days for 6 days, NHEM-aLP cells",1.5-2 fold
same,concentration for similar melanin increase relative to putrescine (2 mM),NHEM-aLP cells [5]; spermidine 0.5 mM vs putrescine 2 mM,4 times lower
CNCCCCNCCCCNCc1cc(CNCCCCNCCCCNC)cc(CNCCCCNCCCCNC)c1 [trimer44NMe],sensitivity of melanocyte viability,Human melanocytes [13],highly sensitive
same,effect on putrescine induced pigmentation (melanin content),[14],blocked the ability of putrescine to promote pigmentation
